US20140323418A1, “SELECTIVE KINASE INHIBITORS” (PORTOLA PHARMACEUTICALS, INC., priority 2011, published 2014)

target: T1, full length active recombinant SYK enzyme (Homo sapiens, UniProt P43405); experiment: Inhibition of Syk tyrosine phosphorylation activity (LANCE TR-FRET kinase assay); assay type: biochemical; details: 1 nM SYK, 550 nM substrate, 100 μM ATP, 1 hour room temperature
T1 construct: full length active recombinant SYK enzyme (Millipore, Calif.); purchased Millipore

Row | IC50 [nM] | Structure (SMILES)
1 | 10 to 100 | CC[C@@H](Nc1ncc(C(N)=O)c(Nc2ccc(-c3cncs3)cc2)n1)C(N)=O [Example 58, (R)-2-((1-amino-1-oxobutan-2-yl)amino)-4-((4-(thiazol-5-yl)phenyl)amino)pyrimidine-5-carboxamide]
2 | > 1000 | CNC(=O)[C@@H]1C[C@@H](Nc2ncc(C(N)=O)c(Nc3cccc(C)c3)n2)CN1 [Example 218, 2-(((3R,5S)-5-(methylcarbamoyl)pyrrolidin-3-yl)amino)-4-(m-tolylamino)pyrimidine-5-carboxamide]
3 | 1 to 10 | CNC(=O)[C@@H]1CC[C@@H](Nc2ncc(C(N)=O)c(Nc3cccc(C)c3)n2)[C@@H](N)C1 (racemic) [Example 189, 2-((1R,2S,4R)-2-amino-4-(methylcarbamoyl)cyclohexylamino)-4-(m-tolylamino)pyrimidine-5-carboxamide]
4 | 10 to 100 | Cc1cccc(Nc2ncc(C(N)=O)c(NC3CCC(N)CC3)n2)c1 (stereo in doubt) [Example 246, 4-(trans-4-aminocyclohexylamino)-2-(m-tolylamino)pyrimidine-5-carboxamide]
5 | 1 to 10 | CC(C)[C@@H](Nc1ncc(C(N)=O)c(Nc2cccc(-n3cccn3)c2)n1)C1(N)CC1 [Example 140, (R)-4-(3-(1H-pyrazol-1-yl)phenylamino)-2-(1-(1-aminocyclopropyl)-2-methylpropylamino)pyrimidine-5-carboxamide]
6 | 100 to 1000 | NC(=O)c1cnc(N[C@@H]2CCOC[C@@H]2N)nc1Nc1ccccc1 [Example 52, 2-(((3R,4R)-3-aminotetrahydro-2H-pyran-4-yl)amino)-4-(phenylamino)pyrimidine-5-carboxamide]
7 | 10 to 100 | NC(=O)c1cnc(N[C@@H]2CCC[C@H](F)[C@@H]2N)nc1Nc1ccc2ncccc2c1 [Example 237, 2-((1R,2R,3S)-2-amino-3-fluorocyclohexylamino)-4-(quinolin-6-ylamino)pyrimidine-5-carboxamide]
8 | 10 to 100 | NC(=O)c1cnc(N[C@@H]2CCCC(F)(F)[C@@H]2N)nc1Nc1cccc2c1ccn2CC(F)(F)F [Example 93, 2-((1R,2R)-2-amino-3,3-difluorocyclohexylamino)-4-(1-(2,2,2-trifluoroethyl)-1H-indol-4-ylamino)pyrimidine-5-carboxamide]
9 | 10 to 100 | NC(=O)c1cnc(N[C@@H]2CCCC[C@@H]2N)nc1Nc1cc(-n2nccn2)c(Cl)cc1Cl [Example 24, 2-((1R,2S)-2-aminocyclohexylamino)-4-(2,4-dichloro-5-(2H-1,2,3-triazol-2-yl)phenylamino)pyrimidine-5-carboxamide]
10 | 10 to 100 | COc1cccc(Nc2ncc(C(N)=O)c(NC3CCC(N)CC3)n2)c1 (stereo in doubt) [Example 247, 4-(trans-4-aminocyclohexylamino)-2-(3-methoxyphenylamino)pyrimidine-5-carboxamide]
11 | 100 to 1000 | N#Cc1cccc(Nc2nc(NC[C@@H](N)CC(F)F)ncc2C(N)=O)c1 [Example 82, (S)-2-(2-amino-4,4-difluorobutylamino)-4-(3-cyanophenylamino)pyrimidine-5-carboxamide]
12 | 10 to 100 | NC(=O)c1cnc(N[C@@H]2CCC[C@H](F)[C@@H]2N)nc1Nc1ccc2ncsc2c1 [Example 239, 2-((1R,2R,3S)-2-amino-3-fluorocyclohexylamino)-4-(benzo[d]thiazol-6-ylamino)pyrimidine-5-carboxamide]
13 | 10 to 100 | Cc1cc2c(Nc3nc(NC[C@@H](N)CC(F)F)ncc3C(N)=O)cccc2n1C [Example 87, (S)-2-(2-amino-4,4-difluorobutylamino)-4-(1,2-dimethyl-1H-indol-4-ylamino)pyrimidine-5-carboxamide]
14 | 10 to 100 | Cc1ccc(Nc2nc(N[C@H](C)C3(N)CC3)ncc2C(N)=O)cc1 [Example 146, (R)-2-(1-(1-aminocyclopropyl)ethylamino)-4-(p-tolylamino)pyrimidine-5-carboxamide]
15 | 10 to 100 | Cc1cncc(Nc2nc(N[C@@H]3CCCC[C@@H]3N)ncc2C(N)=O)c1 [Example 46, 2-(((1R,2S)-2-aminocyclohexyl)amino)-4-((5-methylpyridin-3-yl)amino)pyrimidine-5-carboxamide]
16 | 100 to 1000 | CN1C(=O)Cc2c(Nc3nc(N[C@@H]4CCCC[C@@H]4N)ncc3C(N)=O)cccc21 [Example 96, 2-((1R,2S)-2-aminocyclohexylamino)-4-(1-methyl-2-oxoindolin-4-ylamino)pyrimidine-5-carboxamide]
17 | 100 to 1000 | CC(C)(C(=O)O)c1cccc(Nc2nc(N[C@@H]3CCCC[C@@H]3N)ncc2C(N)=O)c1 [Example 203]
18 | 100 to 1000 | NC(=O)c1cnc(N[C@@H]2CCCC(F)(F)[C@@H]2N)nc1Nc1cnc2ccccc2c1 [Example 168, 2-((1R,2R)-2-amino-3,3-difluorocyclohexylamino)-4-(quinolin-3-ylamino)pyrimidine-5-carboxamide]

Row | IC50 [nM] | Structure (SMILES)
19 | 10 to 100 | NC(=O)c1cnc(N[C@@H]2CCOC[C@@H]2N)nc1Nc1ccc2ncsc2c1 [Example 181, 2-((3R,4R)-3-aminotetrahydro-2H-pyran-4-ylamino)-4-(benzo[d]thiazol-6-ylamino)pyrimidine-5-carboxamide]
20 | 100 to 1000 | Cn1ccc2c(Nc3nc(NC4(C#N)CC4)ncc3C(N)=O)cccc21 [Example 109, 2-(1-cyanocyclopropylamino)-4-(1-methyl-1H-indol-4-ylamino)pyrimidine-5-carboxamide]
21 | 10 to 100 | NC(=O)c1cnc(N[C@@H]2CCC[C@H](F)[C@@H]2N)nc1Nc1cccc(-n2nccn2)c1 [Example 235, 4-(3-(2H-1,2,3-triazol-2-yl)phenylamino)-2-((1R,2R,3S)-2-amino-3-fluorocyclohexylamino)pyrimidine-5-carboxamide]
22 | 100 to 1000 | CC(C)[C@@H](Nc1ncc(C(N)=O)c(Nc2ccc3c(ccc[n+]3[O-])c2)n1)C(N)=O [Example 70, (R)-2-(1-amino-3-methyl-1-oxobutan-2-ylamino)-4-(quinolin-6-ylamino)pyrimidine-5-carboxamide N-oxide]
23 | 10 to 100 | NC(=O)c1cnc(N[C@@H]2CCCC[C@@H]2N)nc1Nc1cccc(Oc2nc3ccccc3s2)c1 [Example 204]
24 | 100 to 1000 | CCc1c(C)n(C)c2cccc(Nc3nc(N[C@@H]4CCCC[C@@H]4N)ncc3C(N)=O)c12 [Example 101, 2-((1R,2S)-2-aminocyclohexylamino)-4-(3-ethyl-1,2-dimethyl-1H-indol-4-ylamino)pyrimidine-5-carboxamide]
25 | 100 to 1000 | CC[C@@H](Nc1ncc(C(N)=O)c(Nc2cccc(C3=NCCCN3)c2)n1)C1(N)CC1 [Example 133, (R)-2-(1-(1-aminocyclopropyl)propylamino)-4-(3-(1,4,5,6-tetrahydropyrimidin-2-yl)phenylamino)pyrimidine-5-carboxamide]
26 | 100 to 1000 | NC(=O)c1cnc(N[C@@H]2CCCC[C@@H]2CO)nc1Nc1cccc(-n2nccn2)c1 (racemic) [Example 256, 4-((3-(2H-1,2,3-triazol-2-yl)phenyl)amino)-2-(((1R,2S)-2-(hydroxymethyl)cyclohexyl)amino)pyrimidine-5-carboxamide]
27 | 10 to 100 | NC(=O)c1cnc(N[C@@H]2CCCC(F)(F)[C@@H]2N)nc1Nc1ccc2ncccc2c1 [Example 169, 2-((1R,2R)-2-amino-3,3-difluorocyclohexylamino)-4-(quinolin-6-ylamino)pyrimidine-5-carboxamide]
28 | 1 to 10 | CC[C@@H](Nc1ncc(C(N)=O)c(Nc2cccc(-c3ncccn3)c2)n1)C1(N)CC1 [Example 131, (R)-2-(1-(1-aminocyclopropyl)propylamino)-4-(3-(pyrimidin-2-yl)phenylamino)pyrimidine-5-carboxamide]
29 | 10 to 100 | NC(=O)c1cnc(N[C@@H]2CCC[C@@H](F)[C@@H]2N)nc1Nc1cccc(-n2nccn2)c1 (racemic) [Example 242, (±)-4-(3-(2H-1,2,3-triazol-2-yl)phenylamino)-2-((1R,2R,3R)-2-amino-3-fluorocyclohexylamino)pyrimidine-5-carboxamide]
30 | 100 to 1000 | NC(=O)c1cnc(NC[C@@H](N)CC(F)F)nc1Nc1cccc(-c2ncccn2)c1 [Example 95, (S)-2-(2-amino-4,4-difluorobutylamino)-4-(3-(pyrimidin-2-yl)phenylamino)pyrimidine-5-carboxamide]
31 | 100 to 1000 | NC(=O)c1cnc(N[C@@H]2CCCC[C@@H]2NCCO)nc1Nc1cccc(-n2nccn2)c1 [Example 12, 4-(3-(2H-1,2,3-triazol-2-yl)phenylamino)-2-((1R,2S)-2-(2-hydroxyethylamino)cyclohexylamino)pyrimidine-5-carboxamide]
32 | 10 to 100 | Cc1cccc(Nc2nc(N[C@H](c3ccccc3)C3(N)CC3)ncc2C(N)=O)c1 [Example 147, (R)-2-(1-(1-aminocyclopropyl)(phenyl)methylamino)-4-(m-tolylamino)pyrimidine-5-carboxamide]
33 | 1 to 10 | Cc1cccc(Nc2nc(N[C@H](C(C)C)C3(N)CC3)ncc2C(N)=O)c1 [Example 144, (R)-2-(1-(1-aminocyclopropyl)-2-methylpropylamino)-4-(m-tolylamino)pyrimidine-5-carboxamide]
34 | 100 to 1000 | NC(=O)c1cnc(N[C@@H]2CCC[C@H](F)[C@@H]2N)nc1Nc1cnc2ccccc2c1 [Example 241, 2-((1R,2R,3S)-2-amino-3-fluorocyclohexylamino)-4-(quinolin-3-ylamino)pyrimidine-5-carboxamide]
35 | 1 to 10 | Cc1cccc(Nc2nc(N[C@@H]3CC[C@@H](C(=O)N4CCC4)C[C@@H]3N)ncc2C(N)=O)c1 [Example 191, 2-((1R,2S,4R)-2-amino-4-(azetidine-1-carbonyl)cyclohexylamino)-4-(m-tolylamino)pyrimidine-5-carboxamide]
36 | 10 to 100 | Cc1ccc(Nc2nc(N[C@H]3[C@@H](N)CCCC3(F)F)ncc2C(N)=O)cc1 [Example 38, 2-(((1S,6S)-6-amino-2,2-difluorocyclohexyl)amino)-4-(p-tolylamino)pyrimidine-5-carboxamide]
